{"source": "patent US11566047B2", "about": "“Peptide or pharmaceutically acceptable salt thereof, or prodrug thereof” (TOKYO UNIVERSITY OF PHARMACY & LIFE SCIENCES, priority 2016, dated 2023)", "target": "T1, myostatin (Homo sapiens, UniProt O14793)", "T1 sequence (O14793 267-375)": "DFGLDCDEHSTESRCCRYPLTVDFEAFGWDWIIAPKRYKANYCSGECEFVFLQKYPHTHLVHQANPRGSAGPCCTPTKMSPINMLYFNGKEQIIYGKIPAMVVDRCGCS", "assay": "cell-based", "details": "HEK293, read-out: luciferase activity (relative; myostatin without test sample = 100%)", "protocol": "Human embryo kidney cell HEK293 cells were cultured in a 5% (v/v) CO2 incubator set to 37° C. using DMEM (NACALAI TESQUE, INC.) including a 10% (v/v) fetal bovine serum (FBS) added with a 1% (v/v) non-essential amino acid (Wako Pure Chemical Corporation).\n(2) In Vitro Reporter Assay\nHEK293 cells were seeded on a D-Lys-corted 96-well transparent plate (Thermo Fisher Scientific Inc.) in an amount of 2.0×10^4 cells (100 μL DMEM+10% (v/v) FBS) per well and were cultured for 24 hours.\nThe cells were cultured at 37° C. for 24 hours, and after the cell culture solution was replaced with serum-free DMEM, the cells were cultured for 8 hours. Incidentally, pGL4.48 [luc2P/SBE/Hygro] includes firefly luciferase reporter gene luc2P under Smad binding region (SBE) control, and when a signaling pathway by the myostatin is activated, intracellular Smad forms a complex, and the complex is bonded to SBE to promote transcription of luc2P.\nThe peptide as a test sample was suspended as a stock solution using DMSO to become 10 mM and stored at −30° C. Before 1 hour from addition to the culture medium, the peptide and a myostatin (Merck Millipore Corp.) were suspended with serum-free DMEM and left to stand still at room temperature (25° C.) for 20 minutes. Subsequently, a peptide with an arbitrary final concentration (0.3 to […]) and 8 ng/mL of myostatin were added to the culture medium, and then culturing was performed for 4 hours. After culturing for 4 hours, the culture solution was removed by an aspirator and the cells were washed with 1×PBS. Thereafter, Passive Lysis buffer (Promega Corporation) was added in an amount of 50 μL per well to dissolve the cells. The dissolving solution was subjected to centrifugal separation at 4500 rpm for 6 minutes under the condition of 4° C. After 20 μL of supernatant subjected to centrifugal separation was transferred to a white 96-well plate (Costar), 50 μL of Luciferase Assay Reagent (Promega Corporation) was then added, emission was detected by Luminoskan Ascent (Thermo Fisher Scientific Inc.), and a firefly luciferase activity was measured. Further, after 50 μL of Stop & Glo Buffer (Promega Corporation) was added, emission was detected by Luminoskan Ascent, and a Renilla luciferase activity was measured to be regarded as an internal control.", "note": "Square brackets hold non-standard residues; d marks the D form. Peptide text beside a SMILES is read from it. * marks the point of attachment. Diglycolyl(TOTA) = NCCCOCCOCCOCCCNC(=O)COCC(=O)*; Chg = N[C@H](C(=O)O)C1CCCCC1; X1 = COCCOCCOCCOCCC(=O)*; Ahx = NCCCCCC(=O)O", "data": [{"smiles": "CC[C@H](C)[C@H](NC(=O)[C@H](Cc1ccc(O)cc1)NC(=O)[C@H](Cc1c[nH]c2ccccc12)NC(=O)CCCCCNC(=O)CCOCCOCCOCCOC)C(=O)N[C@@H](CCC(=O)O)C(=O)N[C@@H](Cc1c[nH]c2ccccc12)C(=O)N[C@H](C(=O)N[C@@H](CCCCN)C(=O)N[C@H](C(=O)N[C@@H](CCC(N)=O)C(=O)N[C@H](C(=O)N[C@@H](Cc1c[nH]c2ccccc12)C(=O)N[C@@H](CO)C(=O)N[C@@H](CCCCN)C(=O)N[C@@H](CC(C)C)C(=O)N[C@@H](CCCNC(=N)N)C(=O)N[C@@H](CC(C)C)C(N)=O)[C@@H](C)CC)[C@@H](C)CC)[C@@H](C)CC", "note": "[PDM-55, R^111-WYIEWIKIQIWSKLRL-NH2] ({X1-Ahx}-WYIEWIKIQIWSKLRL-NH2)", "values": [{"measurement": "remaining activity at 0.3 µM", "value": "≤ 60", "unit": "%"}]}, {"smiles": "CC[C@H](C)[C@H](NC(=O)[C@H](Cc1ccc(O)cc1)NC(=O)[C@H](Cc1c[nH]c2ccccc12)NC(=O)CCCCCNC(=O)CCOCCOCCOCCOC)C(=O)N[C@@H](CCC(=O)O)C(=O)N[C@@H](CO)C(=O)N[C@H](C(=O)N[C@@H](CCCCN)C(=O)N[C@H](C(=O)N[C@@H](CCC(N)=O)C(=O)N[C@H](C(=O)N[C@@H](Cc1c[nH]c2ccccc12)C(=O)N[C@@H](CO)C(=O)N[C@@H](CCCCN)C(=O)N[C@@H](CC(C)C)C(=O)N[C@@H](CCCNC(=N)N)C(=O)N[C@@H](CC(C)C)C(N)=O)[C@@H](C)CC)[C@@H](C)CC)[C@@H](C)CC", "note": "[PDM-63, R^111-WYIESIKIQIWSKLRL-NH2] ({X1-Ahx}-WYIESIKIQIWSKLRL-NH2)", "values": [{"measurement": "remaining activity at 0.3 µM", "value": "≤ 60", "unit": "%"}]}, {"smiles": "CC[C@H](C)[C@H](NC(=O)[C@H](CCC(N)=O)NC(=O)[C@@H](NC(=O)[C@H](CCCNC(=N)N)NC(=O)[C@@H](NC(=O)[C@@H](Cc1c[nH]c2ccccc12)NC(=O)[C@H](CCCNC(=N)N)NC(=O)[C@@H](NC(=O)[C@H](Cc1ccc(O)cc1)NC(=O)[C@H](Cc1c[nH]c2ccccc12)NC(=O)CCCCCNC(=O)CCOCCOCCOCCOC)[C@@H](C)CC)[C@@H](C)CC)C1CCCCC1)C(=O)N[C@@H](Cc1c[nH]c2ccccc12)C(=O)N[C@@H](CO)C(=O)N[C@@H](CCCNC(=N)N)C(=O)N[C@H](C(=O)N1CCC[C@H]1C(=O)N[C@@H](CC(C)C)C(N)=O)C1CCCCC1", "note": "[PDM-80, R^111-WYIRwIR-Chg-QIWSR-Chg-PL-NH2] ({X1-Ahx}-WYIR[dW]IR[Chg]QIWSR[Chg]PL-NH2)", "values": [{"measurement": "remaining activity at 0.3 µM", "value": "≤ 60", "unit": "%"}]}, {"smiles": "CC[C@H](C)[C@H](NC(=O)[C@H](CCC(N)=O)NC(=O)[C@@H](NC(=O)[C@H](CCCCN)NC(=O)[C@@H](NC(=O)[C@@H](Cc1c[nH]c2ccccc12)NC(=O)[C@H](CCCNC(=N)N)NC(=O)[C@@H](NC(=O)[C@H](Cc1ccc(O)cc1)NC(=O)[C@H](Cc1c[nH]c2ccccc12)NC(=O)CCCCCNC(=O)CCOCCOCCOCCOC)[C@@H](C)CC)[C@@H](C)CC)C1CCCCC1)C(=O)N[C@@H](Cc1c[nH]c2ccccc12)C(=O)N[C@@H](CO)C(=O)N[C@@H](CCCCN)C(=O)N[C@H](C(=O)N[C@@H](CCCNC(=N)N)C(=O)N[C@@H](CC(C)C)C(N)=O)C1CCCCC1", "note": "[PDM-86, R^111-WYIRwIK-Chg-QIWSK-Chg-RL-NH2] ({X1-Ahx}-WYIR[dW]IK[Chg]QIWSK[Chg]RL-NH2)", "values": [{"measurement": "remaining activity at 0.3 µM", "value": "≤ 60", "unit": "%"}]}, {"smiles": "CC[C@H](C)[C@H](NC(=O)[C@H](CCC(N)=O)NC(=O)[C@@H](NC(=O)[C@H](CCCCN)NC(=O)[C@@H](NC(=O)[C@@H](Cc1c[nH]c2ccccc12)NC(=O)[C@H](CCCNC(=N)N)NC(=O)[C@@H](NC(=O)[C@H](Cc1ccc(O)cc1)NC(=O)[C@H](Cc1c[nH]c2ccccc12)NC(=O)CCCCCNC(=O)COCC(=O)NCCCOCCOCCOCCCN)[C@@H](C)CC)[C@@H](C)CC)C1CCCCC1)C(=O)N[C@@H](Cc1c[nH]c2ccccc12)C(=O)N[C@@H](CO)C(=O)N[C@@H](CCCCN)C(=O)N[C@H](C(=O)N[C@@H](CCCNC(=N)N)C(=O)N[C@@H](CC(C)C)C(N)=O)C1CCCCC1", "note": "[PDM-89, R^115-WYIRwIK-Chg-QIWSK-Chg-RL-NH2] ({Diglycolyl(TOTA)-Ahx}-WYIR[dW]IK[Chg]QIWSK[Chg]RL-NH2)", "values": [{"measurement": "remaining activity at 0.3 µM", "value": "≤ 60", "unit": "%"}]}, {"smiles": "CC[C@H](C)[C@H](NC(=O)[C@H](CCC(N)=O)NC(=O)[C@@H](NC(=O)[C@H](CCCCN)NC(=O)[C@@H](NC(=O)[C@@H](Cc1c[nH]c2ccccc12)NC(=O)[C@H](CCCNC(=N)N)NC(=O)[C@@H](NC(=O)[C@H](Cc1ccc(O)cc1)NC(=O)[C@H](Cc1c[nH]c2ccccc12)NC(=O)CNC(=O)COCC(=O)NCCCOCCOCCOCCCN)[C@@H](C)CC)[C@@H](C)CC)C1CCCCC1)C(=O)N[C@@H](Cc1c[nH]c2ccccc12)C(=O)N[C@@H](CO)C(=O)N[C@@H](CCCCN)C(=O)N[C@H](C(=O)N[C@@H](CCCNC(=N)N)C(=O)N[C@@H](CC(C)C)C(N)=O)C1CCCCC1", "note": "[PDM-90, R^116-WYIRwIK-Chg-QIWSK-Chg-RL-NH2] ({Diglycolyl(TOTA)}-GWYIR[dW]IK[Chg]QIWSK[Chg]RL-NH2)", "values": [{"measurement": "remaining activity at 0.3 µM", "value": "≤ 60", "unit": "%"}]}, {"smiles": "CC[C@H](C)[C@H](NC(=O)[C@H](CCC(N)=O)NC(=O)[C@@H](NC(=O)[C@H](CCCCN)NC(=O)[C@@H](NC(=O)[C@@H](Cc1c[nH]c2ccccc12)NC(=O)[C@H](CCCNC(=N)N)NC(=O)[C@@H](NC(=O)[C@H](Cc1ccc(O)cc1)NC(=O)[C@H](Cc1c[nH]c2ccccc12)NC(=O)CNC(=O)CNC(=O)COCC(=O)NCCCOCCOCCOCCCN)[C@@H](C)CC)[C@@H](C)CC)C1CCCCC1)C(=O)N[C@@H](Cc1c[nH]c2ccccc12)C(=O)N[C@@H](CO)C(=O)N[C@@H](CCCCN)C(=O)N[C@H](C(=O)N[C@@H](CCCNC(=N)N)C(=O)N[C@@H](CC(C)C)C(N)=O)C1CCCCC1", "note": "[PDM-91, R^117-WYIRwIK-Chg-QIWSK-Chg-RL-NH2] ({Diglycolyl(TOTA)}-GGWYIR[dW]IK[Chg]QIWSK[Chg]RL-NH2)", "values": [{"measurement": "remaining activity at 0.3 µM", "value": "≤ 60", "unit": "%"}]}, {"smiles": "CC[C@H](C)[C@H](NC(=O)[C@H](CCC(N)=O)NC(=O)[C@@H](NC(=O)[C@H](CCCCN)NC(=O)[C@@H](NC(=O)[C@H](Cc1c[nH]c2ccccc12)NC(=O)[C@H](CCC(=O)O)NC(=O)[C@@H](NC(=O)[C@H](Cc1ccc(O)cc1)NC(=O)[C@@H](N)Cc1c[nH]c2ccccc12)[C@@H](C)CC)[C@@H](C)CC)[C@@H](C)CC)C(=O)N[C@@H](Cc1c[nH]c2ccccc12)C(=O)N[C@@H](CO)C(=O)N[C@@H](CCCCN)C(=O)N[C@@H](CC(C)C)C(=O)N[C@@H](CCCNC(=N)N)C(=O)N[C@@H](CC(C)C)C(N)=O", "note": "[nPDM-55, WYIEWIKIQIWSKLRL-NH2] (H-WYIEWIKIQIWSKLRL-NH2)", "values": [{"measurement": "remaining activity at 0.3 µM", "value": "≤ 60", "unit": "%"}]}, {"smiles": "CC[C@H](C)[C@H](NC(=O)[C@H](CCC(N)=O)NC(=O)[C@@H](NC(=O)[C@H](CCCCN)NC(=O)[C@@H](NC(=O)[C@H](Cc1c[nH]c2ccccc12)NC(=O)[C@H](CCCCN)NC(=O)[C@@H](NC(=O)[C@H](Cc1ccc(O)cc1)NC(=O)[C@@H](N)Cc1c[nH]c2ccccc12)[C@@H](C)CC)[C@@H](C)CC)[C@@H](C)CC)C(=O)N[C@@H](Cc1c[nH]c2ccccc12)C(=O)N[C@@H](CO)C(=O)N[C@@H](CCCCN)C(=O)N[C@@H](CC(C)C)C(=O)N[C@@H](CCCNC(=N)N)C(=O)N[C@@H](CC(C)C)C(N)=O", "note": "[nPDM-55/E31K, WYIKWIKIQIWSKLRL-NH2] (H-WYIKWIKIQIWSKLRL-NH2)", "values": [{"measurement": "remaining activity at 0.3 µM", "value": "≤ 60", "unit": "%"}]}, {"smiles": "CC[C@H](C)[C@H](NC(=O)[C@H](CCC(N)=O)NC(=O)[C@@H](NC(=O)[C@H](CCCCN)NC(=O)[C@@H](NC(=O)[C@H](Cc1c[nH]c2ccccc12)NC(=O)[C@H](CCC(N)=O)NC(=O)[C@@H](NC(=O)[C@H](Cc1ccc(O)cc1)NC(=O)[C@@H](N)Cc1c[nH]c2ccccc12)[C@@H](C)CC)[C@@H](C)CC)[C@@H](C)CC)C(=O)N[C@@H](Cc1c[nH]c2ccccc12)C(=O)N[C@@H](CO)C(=O)N[C@@H](CCCCN)C(=O)N[C@@H](CC(C)C)C(=O)N[C@@H](CCCNC(=N)N)C(=O)N[C@@H](CC(C)C)C(N)=O", "note": "[nPDM-55/E31Q, WYIQWIKIQIWSKLRL-NH2] (H-WYIQWIKIQIWSKLRL-NH2)", "values": [{"measurement": "remaining activity at 0.3 µM", "value": "≤ 60", "unit": "%"}]}, {"smiles": "CC[C@H](C)[C@H](NC(=O)[C@H](CCC(N)=O)NC(=O)[C@@H](NC(=O)[C@H](CCCCN)NC(=O)[C@@H](NC(=O)[C@H](Cc1c[nH]c2ccccc12)NC(=O)[C@H](CCCNC(=N)N)NC(=O)[C@@H](NC(=O)[C@H](Cc1ccc(O)cc1)NC(=O)[C@@H](N)Cc1c[nH]c2ccccc12)[C@@H](C)CC)[C@@H](C)CC)C1CCCCC1)C(=O)N[C@@H](Cc1c[nH]c2ccccc12)C(=O)N[C@@H](CO)C(=O)N[C@@H](CCCCN)C(=O)N[C@@H](CC(C)C)C(=O)N[C@@H](CCCNC(=N)N)C(=O)N[C@@H](CC(C)C)C(N)=O", "note": "[nPDM-64, WYIRWIK-Chg-QIWSKLRL-NH2] (H-WYIRWIK[Chg]QIWSKLRL-NH2)", "values": [{"measurement": "remaining activity at 0.3 µM", "value": "≤ 60", "unit": "%"}]}]}
